# Test results: publication PMC12147445, “Dual-Active Nanoimmunomodulators for the Synergistic Enhancement of the Antitumor Efficacy of Photodynamic Immunotherapy” (Biomaterials Research, 2025)
# Tests used:
# CT26 cells [1] = experiment: Cytotoxicity test by the MTT method; format: cell-based, mouse; details: for cytotoxicity (MTT), dark: CT26, no light, highest PIX 6 μg/ml and MAC 6.72 μg/ml, 6 h + 24 h
# Method: CT26 cells were seeded into 96-well plates, and materials with different concentration gradients were prepared. Different materials were added into 96-well plates at 100 μl per well according to the concentration gradient, respectively. The highest concentration of PIX in CPP was 6 μg/ml. The highest concentrations of PIX and MAC in CPPM were 6 and 6.72 μg/ml, respectively. After 6 h of incubation, the CPP light group and CPPM light group were irradiated using infrared light for 3 min, and after 24 h, 20 μl of MTT reagent was added, and the absorbance was detected by an enzyme meter (570 nm) and the cell viability was calculated.
# CT26 cells [2] = experiment: Intracellular ROS detection (DCFH-DA probe); format: cell-based, mouse; details: CT26, 6 h incubation
# Method: The CT26 cells were incubated for 6 h with the addition of MAC, CPP, and CPPM materials, respectively, after wall culture. Subsequently, a 2,7-dichlorodihydrofluorescein diacetate probe was added to stain the cells for 30 min, and the CPP light group and CPPM light group were illuminated for 3 min, and the cells were observed and analyzed by microscopy. The experimental groupings were (the same groupings as below): blank group (blank), MAC group (MAC), CPP group (CPP), CPP light exposure group (CPP+), CPPM group (CPPM), and CPPM light exposure group (CPPM+). The concentration of PIX in CPP was 6 μg/l. The concentrations of PIX and MAC in CPPM were 6 and 6.72 μg/l, respectively.
# CT26 subcutaneous tumor = experiment: Tumor growth inhibition, CT26 subcutaneous tumor model; format: in vivo, BALB/c female mice; details: for antitumor effect (tumor size, volume, weight), no light: MAC 2.0 mg/kg, PIX 1.8 mg/kg, tail vein every 2 d x5, n = 5
# Method: (§1) CT26 cells were inoculated on the back of BALB/c female mice to construct a subcutaneous tumor model (Fig. S2A). The groups were treated as follows (the same groupings as below): MAC (2.0 mg/kg), CPP (PIX content of 1.8 mg/kg), and CPPM (PIX and MAC contents of 1.8 and 2.0 mg/kg, respectively) were injected separately through the tail vein, and the light group was irradiated using a laser for 6 h after drug administration for 10 min (intensity of 50% and power of 0.68 W). The mice were treated every 2 d for a total of 5 treatments, and tumor volume and body weight were measured every other day. On day 18, the mice were executed by cervical dislocation, and their blood was removed and dissected. The spleens of the mice were weighed, and the mouse tumor tissues were stained for Ki67, terminal deoxynucleotidyl transferase dUTP nick end labeling (TUNEL), and CD3/CD8. Different concentrations of CPPM solutions were prepared with saline; 100 μl of CPPM solution was added into 2 ml of mouse blood and mixed well and incubated in a 37 °C water bath for 1 h. After centrifugation, 100 μl of the supernatant was taken into a 96-well plate, and the absorbance value was measured by an enzyme-labeling instrument at a wavelength of 540 nm and the hemolysis rate was calculated. In addition, blood biochemistry and blood routine indexes were analyzed, and hematoxylin–eosin (H&E) staining was performed on tumor tissues and major organs.
# CT26 cells [3] = experiment: ICD immunofluorescence assay (CRT, HMGB1); format: cell-based, mouse; details: CT26, PIX 6 μg/ml, MAC 6.72 μg/ml, 630 nm 29.8 mW cm^-2 10 min
# Method: MAC, CPP, and CPPM were added to CT26 cells, and the light group was incubated for 6 h and then irradiated with light-emitting diode light (630 nm, 29.8 mW cm^−2) for 10 min. After continuing incubation for 4 h, paraformaldehyde (4%) and 0.1% Triton X-100 were added for fixation and permeabilization of cells, respectively. Subsequently, the cells were incubated with CRT or HMGB1 fluorescent primary antibody overnight ([…]), secondary antibody for 1 h, and DAPI for 20 min and then observed by microscopy. The PIX concentration was 6 μg/ml, and the MAC concentration was 6.72 μg/ml.
# CT26 lung metastasis = experiment: In vivo antitumor metastasis study (lung metastasis model); parameters: species or system BALB/c female mice; details: 10 d of treatment, n = 3
# Method: The mouse lung metastasis model was established by inoculating CT26 cells on the back of BALB/c female mice and injecting 2 × 10^6 CT26 cells labeled using green fluorescent protein through the tail vein when the tumor volume of the loaded mice reached 100 mm^3 (Fig. S2C). The groups were treated in the same manner as those in the immune response study. The mice were executed after 10 d of treatment, and the lung tissues of the mice were excised and photographed, and the metastatic lung nodules were quantified and H&E-stained for further examination of the extent of lung metastasis.
# [4] = Drug content / loading efficiency (PIX by UV-Vis, MAC by HPLC); format: physicochemical; details: UV-Vis at 630 nm, sample diluted to 1 mg/ml
# Method: CPP and CPPM were diluted to 1 mg/ml each. MAC was quantified by HPLC with a mobile phase A of water (0.2% TFA), a mobile phase B of acetonitrile, a flow rate of 1 ml/min, and a gradient elution of 10% to 100% B. The peak area of different concentrations of MAC was tested at 277 nm out, and the standard curve was plotted and the drug concentration was tested. PIX was quantified by ultraviolet–visible absorption spectrometry (UV–Vis), and the absorption values of different concentrations of PIX were determined at 630 nm, and the standard curve was plotted and the concentration of PIX was tested. Subsequently, the drug release profiles were determined by HPLC in release media at potential of hydrogen (pH) 5.3 and 7.4.
# CT26 cells [5] = experiment: Flow cytometric apoptosis assay; format: cell-based, mouse; details: flow cytometry annexin V-FITC/PI, 6 h incubation; for apoptosis of CT26 cells, dark: no light
# Method: After the CT26 cells were cultured on the wall, MAC, CPP, and CPPM were added and incubated for 6 h, and the light group was light-exposed for 5 min, respectively. After the cells were washed, 1× annexin V–FITC (195 μl), annexin V–FITC (5 μl), and PI staining solution (10 μl) were added, respectively, and the reaction was detected by flow cytometry after 10 to 15 min. The concentrations of PIX and MAC in CPPM were […] and 3.3 μg/l, respectively.
# [6] = In vitro 1O2 assay (Singlet Oxygen Sensor Green); format: physicochemical; details: PBS, SOSG probe, 630-nm laser, measured every 15 s
# Method: To further explore the ROS-producing behavior of CPPM, MAC, CPP, and CPPM were prepared into 1-ml solutions with phosphate-buffered saline, and 10 μl of reactive oxygen Singlet Oxygen Sensor Green probe was added to each set of solutions. The resulting fluorescence intensity was measured as F0 in an F-302 model fluorescence spectrophotometer (excitation wavelength of 488.0 nm, wavelength range of 500.0 to 550.0 nm), and the fluorescence intensity was measured as Ft under 630-nm laser irradiation every 15 s. The concentration of PIX in CPP was 3 μg/l. The concentrations of PIX and MAC in CPPM were 3 and 3.3 μg/l, respectively.
# [7] = Blood routine examination; format: in vivo, BALB/c female mice; details: CT26 tumor mice, i.v. every 2 d x5, day 18, no light, mean ± SD
# Method: as §1
molecule,measurement,setting,value
"C (PEG5000-Mal)-VRARTR-PIX [CPP, PEG5000-Mal assembled with CP; CPP+ is the light exposure group]","cytotoxicity (MTT), light","CT26 cells [1]; CT26, 6 h incubation then light 3 min, 24 h, highest PIX 6 μg/ml",stronger cytotoxicity
same,"cytotoxicity (MTT), dark",CT26 cells [1],no significant toxic effects
same,"intracellular ROS, light",CT26 cells [2]; light 3 min,showed green fluorescence
same,"intracellular ROS, dark",CT26 cells [2]; no light,did not produce ROS
same,"antitumor effect (tumor size, volume, weight), no light",CT26 subcutaneous tumor,low antitumor properties
same,"antitumor effect (tumor size, volume, weight), light","CT26 subcutaneous tumor; PIX 1.8 mg/kg (MAC 2.0 mg/kg), tail vein every 2 d x5, laser 10 min 6 h after dosing, n = 5",able to inhibit tumor growth
same,CRT expression on the cell membrane under PDT,CT26 cells [3],increase the expression of CRT on the cell membrane
same,HMGB1 in tumor cells under PDT,CT26 cells [3],significantly attenuated
same,"lung metastasis, light",CT26 lung metastasis; laser,a few lung metastases were visible
same,"lung metastasis, no light",CT26 lung metastasis,lung metastasis obviously occurred
same,loading efficiency of PIX,[4],12.09%
same,"apoptosis of CT26 cells, light",CT26 cells [5]; light 5 min,significantly higher
same,"apoptosis of CT26 cells, dark",CT26 cells [5],lower apoptosis rates
same,1O2 generation,[6],could produce ^1O2 under light conditions
"CCCNS(=O)(=O)Nc1ncnc(OCCOc2ncc(Br)cn2)c1-c1ccc(Br)cc1 [MAC, Macitentan, reference compound]",PCT,[7],0.21 ± 0.06%
same,PDW,[7],17.89 ± 0.54
same,Mon,[7]; reference 0.00–0.30,5.54 ± 1.77 10^9/l
same,Gran,[7]; reference 0.10–1.80,116.23 ± 32.29 10^9/l
same,Lymph,[7]; reference 0.70–5.70,24.74 ± 5.26 10^9/l
same,WBC,[7]; reference 0.80–6.80,132.48 ± 37.09 10^9/l
same,RBC,[7]; reference 6.36–9.42,7.82 ± 0.54 10^12/l
same,RDW,[7]; reference 13.00–17.00,14.91 ± 0.48%
same,MCH,[7]; reference 15.80–19.00,16.61 ± 1.12 pg
same,HCT,[7]; reference 34.60–44.60,37.4 ± 2.73%
same,HCV,[7]; reference 48.20–58.30,52.75 ± 2.51 fL
same,HGB,[7]; reference 110.00–143.00,115.11 ± 15.08 g/L
same,MCHC,[7]; reference 302.00–353.00,318.78 ± 20.68 g/L
same,"cytotoxicity (MTT), dark",CT26 cells [1],no significant toxic effects
same,"antitumor effect (tumor size, volume, weight), no light",CT26 subcutaneous tumor,low antitumor properties
same,"lung metastasis, no light",CT26 lung metastasis,lung metastasis obviously occurred
same,"apoptosis of CT26 cells, dark",CT26 cells [5],lower apoptosis rates
